From paper PMC3569154 (Clinical Psychopharmacology and Neuroscience, 2012)

Key:
[1] = system: 28-standard receptor-binding profile; conditions: 1µM; cited from earlier work
[2] = target: T1, [^3H]glycine uptake sites (GlyT-1) (Mus musculus, UniProt P28571); test: Inhibition of [^3H]glycine uptake in mouse brain homogenates; assay type: biochemical
T1 sequence (P28571 1-692): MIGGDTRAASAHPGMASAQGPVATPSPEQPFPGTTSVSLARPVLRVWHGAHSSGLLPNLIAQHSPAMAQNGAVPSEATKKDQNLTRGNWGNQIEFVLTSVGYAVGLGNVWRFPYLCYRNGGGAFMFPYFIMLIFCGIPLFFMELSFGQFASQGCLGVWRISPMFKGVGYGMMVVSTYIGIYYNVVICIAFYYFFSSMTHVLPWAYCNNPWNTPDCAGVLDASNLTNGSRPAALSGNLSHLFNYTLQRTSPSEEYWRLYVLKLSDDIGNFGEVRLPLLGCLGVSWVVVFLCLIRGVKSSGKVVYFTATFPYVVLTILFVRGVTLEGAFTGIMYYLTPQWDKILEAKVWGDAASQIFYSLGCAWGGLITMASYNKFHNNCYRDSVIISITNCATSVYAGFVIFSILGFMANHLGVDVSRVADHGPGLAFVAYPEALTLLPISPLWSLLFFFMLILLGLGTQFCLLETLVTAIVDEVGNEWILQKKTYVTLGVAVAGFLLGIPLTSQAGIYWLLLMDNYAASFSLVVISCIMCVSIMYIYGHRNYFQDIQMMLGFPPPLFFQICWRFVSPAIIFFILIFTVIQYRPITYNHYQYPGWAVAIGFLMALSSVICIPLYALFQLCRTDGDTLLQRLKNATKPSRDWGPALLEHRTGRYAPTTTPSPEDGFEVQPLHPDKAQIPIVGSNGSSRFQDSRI

## CN1CCCC[C@@H]1[C@@H](NC(=O)c1nccc(C(F)(F)F)c1Cl)c1ccsc1 [CHIBA-3007, 3-chloro-N-((S)-((R)-1-methylpiperidin-2-yl)(thiophen-3-yl)methyl)-4-(trifluoromethyl)picolinamide]
[1]
  inhibition in 28-standard receptor-binding profile: < 50%
[2]
  IC50: 2.7 nM
